{"source": "patent US20240165173A1", "about": "“METHOD OF REDUCING URIC ACID BY USING LACTOBACILLUS PARACASEI LT12” (priority 2022, published 2024)", "key": {"[1]": {"tested_on": "high uric acid mice model (potassium oxonate and hypoxanthine)", "type": "in vivo, ICR mice", "set-up": "inflammatory cell infiltration (pathological score) / renal tubules hydropic degeneration (pathological score) / renal tubules atrophy (pathological score) / renal tubules dilation (pathological score) / connective tissue proliferation (pathological score) / Protein cast (pathological score): scale not given here", "procedure": "(§1) Tested animals are 5-week old male ICR mice purchased from Shanghai JSJ Laboratory Animal Co., Ltd., SPF grade. All mice were grown under the conditions of a temperature of 24±2° C., alternating 12 h light and 12 h dark, and free feeding and drinking for adaptation. After 1 week of adaptation, mice were randomly grouped into […], 7 mice in one group. The groups are normal control group, model group, positive control group, low dose Lactobacillus paracasei LT12 group, and high dose Lactobacillus paracasei LT12 group (see Table 3). Modeling period is two weeks and interfering period is four weeks. During modeling, except for the normal control group, the other groups were subjected to gavage with 300 mg/kg potassium oxonate and hypoxanthine (formulated into a suspension using 0.5% CMC-Na solution) every day for high uric acid modeling. During interference, except for the normal control group, the other groups were subjected to gavage with 300 mg/kg potassium oxonate and hypoxanthine every day for continued modeling. 2 h after modeling, each group of mice were administered at the dose according to FIG. 2. The drug samples for each group were dissolved in saline. The same amount of saline was administered to normal groups and model group.\n(§2) During modeling, blood was collected through cutting the tail to detect changes in serum uric acid every week. At the last two days of the experiment, fresh feces of mice of each group were collected and kept in −20° C. refrigerator. Before sacrifice, mice were fasted for 12 h. The last modeling was conducted. Blood was collected 1 h after modeling followed by sacrifice and dissection. Mice whole blood is placed at 4° C. for 2 h followed by centrifugation at 3000 rpm for 10 min. The serum was aliquoted and stored in −80° C. refrigerator. Mice liver, kidneys, and colon were collected. One of the kidneys was preserved in 4% […] for pathological analysis. Other tissue samples were immediately freezed in liquid nitrogen and stored at −80 ° C. for preservation.\n(§3) The levels of uric acid, creatinine, blood urea nitrogen, lactate dehydrogenase, xanthine oxidase (XOD), oxidative stress levels (glutathione (GSH), superoxide dismutase (SOD), glutathione peroxidase (GSH-Px), malondialdehyde (MDA), inflammatory factors (TNF-alpha, IL-1β, and IL-6)) were detected according to the detection method described in the specification in the kits. Pathological analysis on renal tissue were completed in corporation with Wuhan Servicebio Technology Co., Ltd., China. Immunoblotting analysis on renal uric acid transporter proteins were conducted according to internal methods in labs."}, "[2]": {"tested_on": "high uric acid mice model (potassium oxonate and hypoxanthine)", "procedure": "as §1, §2, §3"}, "xanthine oxidase (XOD)": {"tested_on": "xanthine oxidase (XOD)", "type": "in vivo, ICR mice", "conditions": "mice of the high uric acid model, after interference", "experimental": "Tested animals are 5-week old male ICR mice purchased from Shanghai JSJ Laboratory Animal Co., Ltd., SPF grade. All mice were grown under the conditions of a temperature of 24±2° C., alternating 12 h light and 12 h dark, and free feeding and drinking for adaptation. After 1 week of adaptation, mice were randomly grouped into 10 groups, 7 mice in one group. […] Modeling period is two weeks and interfering period is four weeks. During modeling, except for the normal control group, the other groups were subjected to gavage with 300 mg/kg potassium oxonate and hypoxanthine (formulated into a suspension using 0.5% CMC-Na solution) every day for high uric acid modeling. During interference, except for the normal control group, the other groups were subjected to gavage with 300 mg/kg potassium oxonate and hypoxanthine every day for continued modeling. 2 h after modeling, each group of mice were administered at the dose according to FIG. 2. The drug samples for each group were dissolved in saline. […]\nThe levels of uric acid, creatinine, blood urea nitrogen, lactate dehydrogenase, xanthine oxidase (XOD), oxidative stress levels (glutathione (GSH), superoxide dismutase (SOD), glutathione peroxidase (GSH-Px), malondialdehyde (MDA), inflammatory factors (TNF-alpha, IL-1β, and IL-6)) were detected according to the detection method described in the specification in the kits. […]"}, "[3]": {"conditions": "Positive group, score per mouse 3-1 to 3-7"}, "[4]": {"conditions": "after interference for four weeks, gavage, compared with model and normal group"}}, "note": "Several values for one entry are separate records, joined by “and”; a condition that tells them apart may be missing. Equal values may be shown once.", "data": [{"smiles": "Oc1ncnc2[nH]ncc12", "note": "[allopurinol]", "values": [{"measurement": "Protein cast (pathological score)", "setting": "[1]; [3]", "result": "1 and 0 (6×)"}, {"measurement": "connective tissue proliferation (pathological score)", "setting": "[1]; [3]", "result": "0 (5×) and 1 (2×)"}, {"measurement": "inflammatory cell infiltration (pathological score)", "setting": "[1]; [3]", "result": "0 (2×) and 1 (5×)"}, {"measurement": "renal tubules atrophy (pathological score)", "setting": "[1]; [3]", "result": "0 (5×) and 1 (2×)"}, {"measurement": "renal tubules dilation (pathological score)", "setting": "[1]; [3]", "result": "0 (3×) and 1 (4×)"}, {"measurement": "renal tubules hydropic degeneration (pathological score)", "setting": "[1]; [3]", "result": "1 (4×) and 0 and 2 (2×)"}, {"measurement": "Total score (pathological scores of mice kidneys)", "setting": "[1]; Positive group, sum over 7 mice", "result": 22}, {"measurement": "damages in renal tissues", "setting": "[1]; pathological analysis, high uric acid mice", "result": "severe renal damages were caused"}, {"measurement": "blood urea nitrogen levels", "setting": "[2]; [4]", "result": "increased"}, {"measurement": "serum creatinine levels", "setting": "[2]; [4]", "result": "increased"}, {"measurement": "serum uric acid levels", "setting": "[2]; [4]", "result": "reduced to the levels of the normal group"}, {"measurement": "renal toxicity", "setting": "[2]; mouse, in vivo", "result": "strong renal toxicity was generated"}, {"measurement": "activities of xanthine oxidase in serum and liver", "setting": "xanthine oxidase (XOD)", "result": "the lowest"}]}]}
